System: PPARγ
Test: Western blot of HTCF protein lysate, PPARγ
Assay type: cell-based, human
Conditions: AHGFs; ASA 100, 400, 1600 μg/ml, 48 hrs
Experimental: Cells were lysed in lysis buffer (PhosphoSafe Extraction Reagent, Novagen) containing a protease inhibitor cocktail (P2714, Sigma-Aldrich). Crude protein lysate was quantified using a Pierce BCA protein assay kit (ThermoFisher, Mississauga, ON) and 10 ug from each sample was resolved using a Novex WedgeWell 4-20% tris-glycine gel (Invitrogen). Using an iBlot Gel Transfer Device (IB1001, Invitrogen), the separated protein was transferred to a nitrocellulose membrane (1B301001, iBlot Transfer Stack, Invitrogen) which was then blocked with 5% (w/v) bovine serum albumin (Sigma-Aldrich) in Tris buffered saline (TBST) for 1 hour at room temperature. The membranes were incubated overnight at 4° C. with primary antibody diluted in TBST containing 5% BSA (w/vol). Primary antibodies used were as follows: collagen 1 (ab138492, Abcam), αSMA (ab5694, Abcam), MMP9 (ab38898, Abcam), PPARγ (sc-7273, SantaCruz Biotechnology), SMAD2/3 (ab63672, Abcam), pSMAD2/3 (ab63399, Abcam) and GAPDH (sc-47724, Santa Cruz Biotechnology, Inc.). […] Imaging and relative densiometric quantification was accomplished using a ChemiDoc MP System (Bio-Rad Laboratories, Inc.) connected to Image Lab (Version 6, Bio-Rad Laboratories, Inc.).

SMILES: CC(=O)Oc1ccccc1C(=O)O [ASA, acetylsalicylic acid]
- expression of PPARγ: significantly induce expression of PPARγ
